Source: patent publication US20100076015A1, “Aminopyridine Derivatives” (VANTIA LIMITED, priority 2008, published 2010)

The molecules below were run against T1, Human KLK1 (Homo sapiens, UniProt P06870) (assay: Determination of the IC50 for KLK1 (fluorogenic substrate H-DVal-Leu-Arg-AFC)). Conditions: 37° C.
T1 construct: purchased Callbiochem (Calbiochem)
Format: biochemical
Experimental: Determination of the IC50 for KLK1
KLK1 inhibitory activity in vitro was determined using standard published methods (see e.g. Johansen et al., Int. J. Tiss. Reac. 1986, 8, 185; Shori et al., Biochem. Pharmacol., 1992, 43, 1209; Stürzebecher et al., Biol. Chem. Hoppe-Seyler, 1992, 373, 1025). Human KLK1 (Callbiochem) was incubated at 37° C. with the fluorogenic substrate H-DVal-Leu-Arg-AFC and various concentrations of the test compound. Residual enzyme activity (initial rate of reaction) was determined by measuring the change in optical absorbance at 410 nm and the IC50 value for the test compound was determined.

T1 sequence (P06870 25-262): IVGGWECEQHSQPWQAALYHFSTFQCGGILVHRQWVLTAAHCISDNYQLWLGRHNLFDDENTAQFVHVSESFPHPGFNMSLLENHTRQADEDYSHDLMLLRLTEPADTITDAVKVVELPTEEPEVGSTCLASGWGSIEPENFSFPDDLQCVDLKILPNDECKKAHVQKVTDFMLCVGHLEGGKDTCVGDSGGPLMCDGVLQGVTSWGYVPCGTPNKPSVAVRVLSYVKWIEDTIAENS

| IC50 [nM] | SMILES |
| --- | --- |
| 3.1 | CCC(C)[C@@H](NC)C(=O)N[C@@H](Cc1cccc(Cl)c1)C(=O)NCc1ccc(N)nc1 (stereo partly drawn) [Example 45, (R)-3-Methyl-2-methylamino-pentanoic acid [(S)-1-[(6-amino-pyridin-3-ylmethyl)-carbamoyl]-2-(3-chloro-phenyl)-ethyl]-amide] |
| 1.2 | CCC(C)[C@@H](NC)C(=O)N[C@@H](Cc1ccc(Cl)cc1)C(=O)NCc1ccc(N)nc1 (stereo partly drawn) [Example 46, (R)-3-Methyl-2-methylamino-pentanoic acid [(S)-1-[(6-amino-pyridin-3-ylmethyl)-carbamoyl]-2-(4-chloro-phenyl)-ethyl]-amide] |
| 316 | CCC(C)[C@@H](NC)C(=O)N[C@@H](Cc1ccc(O)cc1)C(=O)NCc1ccc(N)nc1 (stereo partly drawn) [Example 47, (R)-3-Methyl-2-methylamino-pentanoic acid [(S)-1-[(6-amino-pyridin-3-ylmethyl)-carbamoyl]-2-(4-hydroxy-phenyl)-ethyl]-amide] |
| 8 | CCC(C)[C@@H](NC)C(=O)N[C@@H](Cc1cc(F)c(F)cc1F)C(=O)NCc1ccc(N)nc1 (stereo partly drawn) [Example 48, (R)-3-Methyl-2-methylamino-pentanoic acid [(S)-1-[(6-amino-pyridin-3-ylmethyl)-carbamoyl]-2-(2,4,5-trifluoro-phenyl)-ethyl]-amide] |
| 4.2 | CCC(C)[C@@H](NC)C(=O)N[C@@H](Cc1cc(F)cc(F)c1)C(=O)NCc1ccc(N)nc1 (stereo partly drawn) [Example 49, (R)-3-Methyl-2-methylamino-pentanoic acid [(S)-1-[(6-amino-pyridin-3-ylmethyl)-carbamoyl]-2-(3,5-difluoro-phenyl)-ethyl]-amide] |
| 29.1 | CCC(C)C(NC)C(=O)NC(Cc1c(F)c(F)c(F)c(F)c1F)C(=O)NCc1ccc(N)nc1 [Example 50, (R)-3-Methyl-2-methylamino-pentanoic acid {(S)-1-[(6-amino-pyridin-3-ylmethyl)-carbamoyl]-2-pentafluorophenyl-ethyl}-amide] |
| 0.26 | CCC(C)[C@@H](NC)C(=O)N[C@@H](Cc1csc2ccccc12)C(=O)NCc1ccc(N)nc1 (stereo partly drawn) [Example 51, (R)-3-Methyl-2-methylamino-pentanoic acid {(S)-1-[(6-amino-pyridin-3-ylmethyl)-carbamoyl]-2-benzo[b]thiophen-3-yl-ethyl}-amide] |
| 24.5 | CCC(C)[C@@H](NC)C(=O)N[C@@H](Cc1ccc(C(C)(C)C)cc1)C(=O)NCc1ccc(N)nc1 (stereo partly drawn) [Example 52, (R)-3-Methyl-2-methylamino-pentanoic acid [(S)-1-[(6-amino-pyridin-3-ylmethyl)-carbamoyl]-2-(4-tert-butyl-phenyl)-ethyl]-amide] |
| 0.7 | Nc1ccc(CNC(=O)[C@H](Cc2ccc(Cl)c(Cl)c2)NC(=O)[C@H]2CCCN2)cn1 [Example 55, (R)-Pyrrolidine-2-carboxylic acid [(S)-1-[(6-amino-pyridin-3-ylmethyl)-carbamoyl]-2-(3,4-dichloro-phenyl)-ethyl]-amide] |
| 7.1 | Nc1ccc(CNC(=O)[C@H](Cc2ccc(Cl)c(Cl)c2)NC(=O)[C@H]2CSCN2)cn1 [Example 56, (S)-Thiazolidine-4-carboxylic acid [(S)-1-[(6-amino-pyridin-3-ylmethyl)-carbamoyl]-2-(3,4-dichloro-phenyl)-ethyl]-amide] |
| 4.6 | Nc1ccc(CNC(=O)[C@H](Cc2ccc(Cl)c(Cl)c2)NC(=O)[C@H](N)c2ccccc2)cn1 [Example 57, (S)-2-((R)-2-Amino-2-phenyl-acetylamino)-N-(6-amino-pyridin-3-ylmethyl)-3-(3,4-dichloro-phenyl)-propionamide] |
| 48.6 | Nc1ccc(CNC(=O)[C@H](Cc2ccc(Cl)c(Cl)c2)NC(=O)[C@@H](N)c2ccccc2)cn1 [Example 58, (S)-2-((S)-2-Amino-2-phenyl-acetylamino)-N-(6-amino-pyridin-3-ylmethyl)-3-(3,4-dichloro-phenyl)-propionamide] |
| 0.66 | Nc1ccc(CNC(=O)[C@H](Cc2ccc(Cl)c(Cl)c2)NC(=O)[C@H]2CCCCN2)cn1 [Example 63, (R)-Piperidine-2-carboxylic acid [(S)-1-[(6-amino-pyridin-3-ylmethyl)-carbamoyl]-2-(3,4-dichloro-phenyl)-ethyl]-amide] |
| 3.1 | Nc1ccc(CNC(=O)[C@H](Cc2ccc(Cl)c(Cl)c2)NC(=O)[C@H]2Cc3ccccc3CN2)cn1 [Example 64, (R)-1,2,3,4-Tetrahydro-isoquinoline-3-carboxylic acid [(S)-1-[(6-amino-pyridin-3-ylmethyl)-carbamoyl]-2-(3,4-dichloro-phenyl)-ethyl]-amide] |
| 2.7 | Nc1ccc(CNC(=O)[C@H](Cc2ccc(Cl)c(Cl)c2)NC(=O)[C@H]2C=CCN2)cn1 [Example 65, (R)-2,5-Dihydro-1H-pyrrole-2-carboxylic acid [(S)-1-[(6-amino-pyridin-3-ylmethyl)-carbamoyl]-2-(3,4-dichloro-phenyl)-ethyl]-amide] |
| 20.7 | Nc1ccc(CNC(=O)[C@H](Cc2ccc(Cl)c(Cl)c2)NC(=O)[C@H]2CC(F)(F)CN2)cn1 [Example 66, (R)-4,4-Difluoro-pyrrolidine-2-carboxylic acid [(S)-1-[(6-amino-pyridin-3-ylmethyl)-carbamoyl]-2-(3,4-dichloro-phenyl)-ethyl]-amide] |
| 3.1 | Nc1ccc(CNC(=O)[C@H](Cc2ccc(Cl)c(Cl)c2)NC(=O)[C@H](N)CCc2ccccc2)cn1 [Example 67, (R)-2-Amino-N-[(S)-1-[(6-amino-pyridin-3-ylmethyl)-carbamoyl]-2-(3,4-dichloro-phenyl)-ethyl]-4-phenyl-butyramide] |
| 9.2 | Nc1ccc(CNC(=O)[C@H](Cc2ccc(Cl)c(Cl)c2)NC(=O)[C@H](N)CC2CCCCC2)cn1 [Example 68, (R)-2-Amino-N-[(S)-1-[(6-amino-pyridin-3-ylmethyl)-carbamoyl]-2-(3,4-dichloro-phenyl)-ethyl]-3-cyclohexyl-propionamide] |
| 42.2 | CNCC(=O)N[C@@H](Cc1ccc(Cl)c(Cl)c1)C(=O)NCc1ccc(N)nc1 [Example 69, (S)—N-(6-Amino-pyridin-3-ylmethyl)-3-(3,4-dichloro-phenyl)-2-(2-methylamino-acetylamino)-propionamide] |
| 1.1 | Nc1ccc(CNC(=O)[C@H](Cc2cccc(C(F)(F)F)c2)NC(=O)[C@H](N)Cc2ccc(Cl)cc2)cn1 [Example 70, (R)-2-Amino-N-[(S)-1-[(6-amino-pyridin-3-ylmethyl)-carbamoyl]-2-(3-trifluoromethyl-phenyl)-ethyl]-3-(4-chloro-phenyl)-propionamide] |
| 7.2 | Nc1ccc(CNC(=O)[C@H](Cc2ccc(F)c(F)c2)NC(=O)[C@H]2CCCN2)cn1 [Example 72, (R)-Pyrrolidine-2-carboxylic acid [(S)-1-[(6-amino-pyridin-3-ylmethyl)-carbamoyl]-2-(3,4-difluoro-phenyl)-ethyl]-amide] |
| 1.1 | Nc1ccc(CNC(=O)[C@H](Cc2ccc(F)cc2)NC(=O)[C@H]2CCCCN2)cn1 [Example 73, (R)-Piperidine-2-carboxylic acid [(S)-1-[(6-amino-pyridin-3-ylmethyl)-carbamoyl]-2-(4-fluoro-phenyl)-ethyl]-amide] |
| 1.8 | Nc1ccc(CNC(=O)[C@H](Cc2ccc(F)c(F)c2)NC(=O)[C@H]2CCCCN2)cn1 [Example 74, (R)-Piperidine-2-carboxylic acid [(S)-1-[(6-amino-pyridin-3-ylmethyl)-carbamoyl]-2-(3,4-difluoro-phenyl)-ethyl]-amide] |
| 2.2 | Nc1ccc(CNC(=O)[C@H](Cc2cccc3ccccc23)NC(=O)[C@H]2CCCCN2)cn1 [Example 75, (R)-Piperidine-2-carboxylic acid {(S)-1-[(6-amino-pyridin-3-ylmethyl)-carbamoyl]-2-naphthalen-1-ylethyl}-amide] |
| 21.8 | Nc1ccc(CNC(=O)[C@H](Cc2ccccc2Cl)NC(=O)[C@H]2CCCCN2)cn1 [Example 76, (R)-Piperidine-2-carboxylic acid [(S)-1-[(6-amino-pyridin-3-ylmethyl)-carbamoyl]-2-(2-chloro-phenyl)-ethyl]-amide] |
| 2.9 | Nc1ccc(CNC(=O)[C@H](Cc2cccc(Cl)c2)NC(=O)[C@H]2CCCCN2)cn1 [Example 77, (R)-Piperidine-2-carboxylic acid [(S)-1-[(6-amino-pyridin-3-ylmethyl)-carbamoyl]-2-(3-chloro-phenyl)-ethyl]-amide] |
| 1.2 | Nc1ccc(CNC(=O)[C@H](Cc2csc3ccccc23)NC(=O)[C@H]2CCCCN2)cn1 [Example 78, (R)-Piperidine-2-carboxylic acid {(S)-1-[(6-amino-pyridin-3-ylmethyl)-carbamoyl]-2-benzo[b]thiophen-3-yl-ethyl}-amide] |
| 16.1 | Nc1ccc(CNC(=O)[C@H](Cc2ccc(F)c(F)c2)NC(=O)[C@H](N)Cc2ccccc2)cn1 [Example 80, (R)-2-Amino-N-[(S)-1-[(6-amino-pyridin-3-ylmethyl)-carbamoyl]-2-(3,4-difluoro-phenyl)-ethyl]-3-phenyl-propionamide] |
| 5 | CN[C@H](Cc1ccccc1)C(=O)N[C@@H](Cc1ccc(F)c(F)c1)C(=O)NCc1ccc(N)nc1 [Example 81, (R)—N-[(S)-1-[(6-Amino-pyridin-3-ylmethyl)carbamoyl]-2-(3,4-difluoro-phenyl)-ethyl]-2-methylamino-3-phenyl-propionamide] |
| 11.2 | CCC(C)[C@H](NC)C(=O)N[C@@H](Cc1ccc(F)c(F)c1)C(=O)NCc1ccc(N)nc1 (stereo partly drawn) [Example 82, (S)-3-Methyl-2-methylamino-pentanoic acid [(S)-1-[(6-amino-pyridin-3-ylmethyl)-carbamoyl]-2-(3,4-difluoro-phenyl)-ethyl]-amide] |
